Test results: ChEMBL document CHEMBL3885881, “DrugMatrix”
“And” between values parts separate entries of the source, which are not always exact repeats. Equal values may be shown once.

Species on record: Rattus norvegicus
Assay: DrugMatrix - Regimen: Daily Repeat
Assay type: toxicity, organism-based, Sprague-Dawley
Parameters: regimen Daily Repeat, gender Male, age 6-8 weeks
Conditions: in vivo, po, 0 mg/kg, route oral GAVAGE, dose level Control, vehicle .5 % CMC; for BASOPHIL / EOSINOPHIL / ERYTHROCYTE COUNT / HEMATOCRIT / HEMOGLOBIN / LEUKOCYTE COUNT / LYMPHOCYTE / MEAN CORPUSCULAR HEMOGLOBIN / MEAN CORPUSCULAR HEMOGLOBIN CONCENTRATION / MEAN CORPUSCULAR VOLUME / MONOCYTE / NEUTROPHIL / PLATELET COUNT / ABSOLUTE BASOPHIL / ABSOLUTE EOSINOPHIL / ABSOLUTE LYMPHOCYTE / ABSOLUTE MONOCYTE / ABSOLUTE SEGMENTED NEUTROPHIL: tissue Blood; for ALANINE AMINOTRANSFERASE / ALBUMIN / ALKALINE PHOSPHATASE / ASPARTATE AMINOTRANSFERASE / BLOOD UREA NITROGEN / CHLORIDE / CHOLESTEROL / CREATINE PHOSPHOKINASE / CREATININE / GLUCOSE / PHOSPHORUS / POTASSIUM / SODIUM / TOTAL BILIRUBIN / TOTAL PROTEIN / LACTATE DEHYDROGENASE / LIPASE / URIC ACID: tissue Plasma

SMILES: Cc1ccc2cc3c(ccc4ccccc43)c3c2c1CC3 [3-METHYLCHOLANTHRENE]
- BASOPHIL (72 h, time 3 day): 0.52%
- EOSINOPHIL (72 h, time 3 day): 0.48%
- ERYTHROCYTE COUNT (72 h, time 3 day): 6.68 x10E6/uL
- HEMATOCRIT (72 h, time 3 day): 43.07%
- HEMOGLOBIN (72 h, time 3 day): 13.48 G/DL
- LEUKOCYTE COUNT (72 h, time 3 day): 11.41 x10E3/uL
- LYMPHOCYTE (72 h, time 3 day): 80.78%
- MEAN CORPUSCULAR HEMOGLOBIN (72 h, time 3 day): 20.2 pg
- MEAN CORPUSCULAR HEMOGLOBIN CONCENTRATION (72 h, time 3 day): 31.32 G/DL
- MEAN CORPUSCULAR VOLUME (72 h, time 3 day): 64.45 fL
- MONOCYTE (72 h, time 3 day): 2.23%
- NEUTROPHIL (72 h, time 3 day): 14.73%
- PLATELET COUNT (72 h, time 3 day): 1225.83 x10E3/uL
- ALANINE AMINOTRANSFERASE (72 h, time 3 day): 44.5 u/L
- ALBUMIN (72 h, time 3 day): 3.62 G/DL
- ALKALINE PHOSPHATASE (72 h, time 3 day): 404.5 u/L
- ASPARTATE AMINOTRANSFERASE (72 h, time 3 day): 71.67 u/L
- BLOOD UREA NITROGEN (72 h, time 3 day): 15 mg/dL
- CHLORIDE (72 h, time 3 day): 103 MEQ/L
- CHOLESTEROL (72 h, time 3 day): 96.83 mg/dL
- CREATINE PHOSPHOKINASE (72 h, time 3 day): 236 u/L
- CREATININE (72 h, time 3 day): 0.43 mg/dL
- GLUCOSE (72 h, time 3 day): 186.83 mg/dL
- PHOSPHORUS (72 h, time 3 day): 12.67 mg/dL
- POTASSIUM (72 h, time 3 day): 7.1 MEQ/L
- SODIUM (72 h, time 3 day): 147.33 MEQ/L
- TOTAL BILIRUBIN (72 h, time 3 day): 0.52 mg/dL
- TOTAL PROTEIN (72 h, time 3 day): 6.18 G/DL
- ABSOLUTE BASOPHIL (120 h, time 5 day): 92 cells/µL
- ABSOLUTE EOSINOPHIL (120 h, time 5 day): 52 cells/µL
- ABSOLUTE LYMPHOCYTE (120 h, time 5 day): 6560 cells/µL
- ABSOLUTE MONOCYTE (120 h, time 5 day): 160 cells/µL
- ABSOLUTE SEGMENTED NEUTROPHIL (120 h, time 5 day): 1130 cells/µL
- BASOPHIL (120 h, time 5 day): 1.14% and 0.92%
- EOSINOPHIL (120 h, time 5 day): 0.68% and 0.43%
- ERYTHROCYTE COUNT (120 h, time 5 day): 7.51 x10E6/uL and 7.03 x10E6/uL
- HEMATOCRIT (120 h, time 5 day): 46.04% and 46.55%
- HEMOGLOBIN (120 h, time 5 day): 15.62 G/DL and 14.32 G/DL
- LEUKOCYTE COUNT (120 h, time 5 day): 8.03 x10E3/uL and 12.22 x10E3/uL
- LYMPHOCYTE (120 h, time 5 day): 81.54% and 82.65%
- MEAN CORPUSCULAR HEMOGLOBIN (120 h, time 5 day): 20.84 pg and 20.35 pg
- MEAN CORPUSCULAR HEMOGLOBIN CONCENTRATION (120 h, time 5 day): 33.94 G/DL and 30.77 G/DL
- MEAN CORPUSCULAR VOLUME (120 h, time 5 day): 61.42 fL and 66.28 fL
- MONOCYTE (120 h, time 5 day): 2% and 2.28%
- NEUTROPHIL (120 h, time 5 day): 14.24% and 12.73%
- PLATELET COUNT (120 h, time 5 day): 1427.2 x10E3/uL and 1268.67 x10E3/uL
- ALANINE AMINOTRANSFERASE (120 h, time 5 day): 35.6 u/L and 44.5 u/L
- ALBUMIN (120 h, time 5 day): 3.64 G/DL and 3.73 G/DL
- ALKALINE PHOSPHATASE (120 h, time 5 day): 233 u/L and 340.83 u/L
- ASPARTATE AMINOTRANSFERASE (120 h, time 5 day): 81 u/L and 66.5 u/L
- BLOOD UREA NITROGEN (120 h, time 5 day): 12 mg/dL and 13.33 mg/dL
- CHLORIDE (120 h, time 5 day): 109.4 MEQ/L and 102.17 MEQ/L
- CHOLESTEROL (120 h, time 5 day): 47.6 mg/dL and 82.17 mg/dL
- CREATINE PHOSPHOKINASE (120 h, time 5 day): 183.2 u/L and 146.67 u/L
- CREATININE (120 h, time 5 day): 0.4 mg/dL and 0.35 mg/dL
- GLUCOSE (120 h, time 5 day): 134.6 mg/dL and 186.17 mg/dL
- LACTATE DEHYDROGENASE (120 h, time 5 day): 89.4 u/L
- LIPASE (120 h, time 5 day): 17.2 u/L
- PHOSPHORUS (120 h, time 5 day): 13.02 mg/dL and 11.83 mg/dL
- POTASSIUM (120 h, time 5 day): 7 MEQ/L and 6.47 MEQ/L
- SODIUM (120 h, time 5 day): 149.6 MEQ/L and 148.83 MEQ/L
- TOTAL PROTEIN (120 h, time 5 day): 6.06 G/DL and 6.27 G/DL
- URIC ACID (120 h, time 5 day): 1.04 mg/dL
- ABSOLUTE BASOPHIL (2184 h, time 91 day): 130 cells/µL
- ABSOLUTE EOSINOPHIL (2184 h, time 91 day): 70 cells/µL
- ABSOLUTE LYMPHOCYTE (2184 h, time 91 day): 8670 cells/µL
- ABSOLUTE MONOCYTE (2184 h, time 91 day): 160 cells/µL
- ABSOLUTE SEGMENTED NEUTROPHIL (2184 h, time 91 day): 1530 cells/µL
- BASOPHIL (2184 h, time 91 day): 1.13%
- EOSINOPHIL (2184 h, time 91 day): 0.66%
- ERYTHROCYTE COUNT (2184 h, time 91 day): 9.13 x10E6/uL
- HEMATOCRIT (2184 h, time 91 day): 48.47%
- HEMOGLOBIN (2184 h, time 91 day): 16.56 G/DL
- LEUKOCYTE COUNT (2184 h, time 91 day): 10.5 x10E3/uL
- LYMPHOCYTE (2184 h, time 91 day): 81.63%
- MEAN CORPUSCULAR HEMOGLOBIN (2184 h, time 91 day): 18.16 pg
- MEAN CORPUSCULAR HEMOGLOBIN CONCENTRATION (2184 h, time 91 day): 34.14 G/DL
- MEAN CORPUSCULAR VOLUME (2184 h, time 91 day): 53.14 fL
- MONOCYTE (2184 h, time 91 day): 1.53%
- NEUTROPHIL (2184 h, time 91 day): 14.71%
- PLATELET COUNT (2184 h, time 91 day): 1280.22 x10E3/uL
- ALANINE AMINOTRANSFERASE (2184 h, time 91 day): 28.89 u/L
- ALBUMIN (2184 h, time 91 day): 3.69 G/DL
- ALKALINE PHOSPHATASE (2184 h, time 91 day): 101.11 u/L
- ASPARTATE AMINOTRANSFERASE (2184 h, time 91 day): 70.67 u/L
- BLOOD UREA NITROGEN (2184 h, time 91 day): 16.78 mg/dL
- CHLORIDE (2184 h, time 91 day): 104.56 MEQ/L
- CHOLESTEROL (2184 h, time 91 day): 58.78 mg/dL
- CREATINE PHOSPHOKINASE (2184 h, time 91 day): 91.22 u/L
- CREATININE (2184 h, time 91 day): 0.61 mg/dL
- GLUCOSE (2184 h, time 91 day): 142.33 mg/dL
- LACTATE DEHYDROGENASE (2184 h, time 91 day): 81.67 u/L
- LIPASE (2184 h, time 91 day): 13 u/L
- PHOSPHORUS (2184 h, time 91 day): 7.54 mg/dL
- POTASSIUM (2184 h, time 91 day): 6.27 MEQ/L
- SODIUM (2184 h, time 91 day): 149.89 MEQ/L
- TOTAL BILIRUBIN (2184 h, time 91 day): 0.19 mg/dL
- TOTAL PROTEIN (2184 h, time 91 day): 7.12 G/DL
- URIC ACID (2184 h, time 91 day): 0.97 mg/dL
- ABSOLUTE BASOPHIL ([…], time 28 day): 150 cells/µL
- ABSOLUTE EOSINOPHIL ([…], time 28 day): 54 cells/µL
- ABSOLUTE LYMPHOCYTE ([…], time 28 day): 8890 cells/µL
- ABSOLUTE MONOCYTE ([…], time 28 day): 190 cells/µL
- ABSOLUTE SEGMENTED NEUTROPHIL ([…], time 28 day): 2250 cells/µL
- BASOPHIL ([…], time 28 day): 1.26%
- EOSINOPHIL ([…], time 28 day): 0.46%
- ERYTHROCYTE COUNT ([…], time 28 day): 8.34 x10E6/uL
- HEMATOCRIT ([…], time 28 day): 48.66%
- HEMOGLOBIN ([…], time 28 day): 16.04 G/DL
- LEUKOCYTE COUNT ([…], time 28 day): 11.58 x10E3/uL
- LYMPHOCYTE ([…], time 28 day): 76.74%
- MEAN CORPUSCULAR HEMOGLOBIN ([…], time 28 day): 19.2 pg
- MEAN CORPUSCULAR HEMOGLOBIN CONCENTRATION ([…], time 28 day): 32.92 G/DL
- MEAN CORPUSCULAR VOLUME ([…], time 28 day): 58.32 fL
- MONOCYTE ([…], time 28 day): 1.76%
- NEUTROPHIL ([…], time 28 day): 19.44%
- PLATELET COUNT ([…], time 28 day): 1282.6 x10E3/uL
- ALANINE AMINOTRANSFERASE ([…], time 28 day): 27 u/L
- ALBUMIN ([…], time 28 day): 3.68 G/DL
- ALKALINE PHOSPHATASE ([…], time 28 day): 146.2 u/L
- ASPARTATE AMINOTRANSFERASE ([…], time 28 day): 66.6 u/L
- BLOOD UREA NITROGEN ([…], time 28 day): 12.4 mg/dL
- CHLORIDE ([…], time 28 day): 104.6 MEQ/L
